According to patent publication US11059823B2, “Small molecule inhibitors of the JAK family of kinases” (Janssen Pharmaceutica NV, priority 2016, dated 2021):
Like-named read-outs stand apart in the source and are kept apart here.

Assay: Plasma and colon concentrations after p.o. dosing (Protocols 1 and 2)
Format: in vivo, female C57BL/6 mice
Conditions: female, C57BL/6, mouse, po, mice, 25 mg/kg p.o.
Protocol: These protocols are described below under the heading In vivo Studies.
(§1) Three non-fasted female C57BL/6 mice were orally administered test compound at a dose of 25 mg/kg p.o. as a solution in 20% hydroxypropyl-beta-cyclodextrin (HPβCD) at a dose volume of 5 mL/kg. Blood samples were collected at 0.5, 2, and 4 h post dose via retro-orbital bleed or venipuncture of the dorsal metatarsal vein. Blood samples were collected into tubes containing anticoagulant (Heparin-Na) and placed on wet ice. The plasma fraction was separated by centrifugation and frozen at −20° C. for up to 4 h and −80° C. after 4 h unless analyzed shortly after sample collection. Colon samples were collected at 4 h post dose. From the beginning of the cecum, a 4-6 cm sample of the colon was dissected, cut open on the longitudinal axis, and the solid contents removed by flushing with 2 mL of saline. The colon was further washed by putting it in 5 mL of saline and shaken for 5 seconds. The colon sample was then patted dry, weighed, and homogenized as 1 part tissue (g) to 4 parts HPLC grade water (mL). Concentrations of the compound in plasma and colon homogenate were determined using a qualified liquid chromatography-triple quadrupole mass spectrometry (LC-MS/MS) method.
as §1, with “HPβCD” for “hydroxypropyl-beta-cyclodextrin (HPβCD)”, “or” for “or venipuncture of the”, “2 cm below” for “the beginning of”, “4” for “4-6”

Molecule N#CC[C@H]1CC[C@H](n2c(-c3c[nH]cn3)nc3cnc4[nH]ccc4c32)CC1 [Ex. 2, 2-((1r,4r)-4-(2-(1H-Imidazol-4-yl)imidazo[4,5-d]pyrrolo[2,3-b]pyridin-1(6H)-yl)cyclohexyl)acetonitrile] has a concentration at 4 h (colon, read-out: Colon Concentration After p.o. Dosing, Mean) of 7600 ng/g, a concentration at 0.5 h (plasma, Time = 0.5 h) of 24.5 ng/mL and a concentration at 2 h (plasma, Time = 2 h) of 4.2 ng/mL. The concentration at 4 h (plasma, read-out: Plasma Concentration After p.o. Dosing, Mean) was 1.3 ng/mL.
